Measurements as given in PubChem BioAssay AID1259407 (Chemical Carcinogenesis Research Information System (CCRIS), 2018).
The source made the active and inactive calls. The rule behind the calls is not given here.

Test system: CCRIS mutagenicity, Ames/micronucleus/aberration tests
Assay: CCRIS mutagenicity studies
[1] = Test System: AMES SALMONELLA TYPHIMURIUM, Strain/Indicator: TA97, Metabolic Activation: HAMSTER, LIVER, S-9, AROCLOR 1254 (10 OR 30%), Method: PREINCUBATION
[2] = Test System: AMES SALMONELLA TYPHIMURIUM, Strain/Indicator: TA97, Metabolic Activation: NONE, Method: PREINCUBATION
[3] = Test System: AMES SALMONELLA TYPHIMURIUM, Strain/Indicator: TA97, Metabolic Activation: RAT, LIVER, S-9, AROCLOR 1254 (10%), Method: PREINCUBATION
[4] = Test System: AMES SALMONELLA TYPHIMURIUM, Strain/Indicator: TA97, Metabolic Activation: RAT, LIVER, S-9, AROCLOR 1254 (30%), Method: PREINCUBATION
[5] = Test System: AMES SALMONELLA TYPHIMURIUM, Strain/Indicator: TA98, Metabolic Activation: HAMSTER, LIVER, S-9, AROCLOR 1254 (10 OR 30%), Method: PREINCUBATION
[6] = Test System: AMES SALMONELLA TYPHIMURIUM, Strain/Indicator: TA98, Metabolic Activation: NONE, Method: PREINCUBATION
[7] = Test System: AMES SALMONELLA TYPHIMURIUM, Strain/Indicator: TA98, Metabolic Activation: RAT, LIVER, S-9, AROCLOR 1254 (10%), Method: PREINCUBATION
[8] = Test System: AMES SALMONELLA TYPHIMURIUM, Strain/Indicator: TA98, Metabolic Activation: RAT, LIVER, S-9, AROCLOR 1254 (30%), Method: PREINCUBATION
[9] = Test System: AMES SALMONELLA TYPHIMURIUM, Strain/Indicator: TA100, Metabolic Activation: HAMSTER, LIVER, S-9, AROCLOR 1254 (10%), Method: PREINCUBATION
[10] = Test System: AMES SALMONELLA TYPHIMURIUM, Strain/Indicator: TA100, Metabolic Activation: HAMSTER, LIVER, S-9, AROCLOR 1254 (30%), Method: PREINCUBATION
[11] = Test System: AMES SALMONELLA TYPHIMURIUM, Strain/Indicator: TA100, Metabolic Activation: NONE, Method: PREINCUBATION
[12] = Test System: AMES SALMONELLA TYPHIMURIUM, Strain/Indicator: TA100, Metabolic Activation: RAT, LIVER, S-9, AROCLOR 1254 (10%), Method: PREINCUBATION
[13] = Test System: AMES SALMONELLA TYPHIMURIUM, Strain/Indicator: TA100, Metabolic Activation: RAT, LIVER, S-9, AROCLOR 1254 (30%), Method: PREINCUBATION
[14] = Test System: AMES SALMONELLA TYPHIMURIUM, Strain/Indicator: TA1535, Metabolic Activation: HAMSTER, LIVER, S-9, AROCLOR 1254 (10%), Method: PREINCUBATION
[15] = Test System: AMES SALMONELLA TYPHIMURIUM, Strain/Indicator: TA1535, Metabolic Activation: HAMSTER, LIVER, S-9, AROCLOR 1254 (30%), Method: PREINCUBATION
[16] = Test System: AMES SALMONELLA TYPHIMURIUM, Strain/Indicator: TA1535, Metabolic Activation: NONE, Method: PREINCUBATION
[17] = Test System: AMES SALMONELLA TYPHIMURIUM, Strain/Indicator: TA1535, Metabolic Activation: RAT, LIVER, S-9, AROCLOR 1254 (10%), Method: PREINCUBATION
[18] = Test System: AMES SALMONELLA TYPHIMURIUM, Strain/Indicator: TA1535, Metabolic Activation: RAT, LIVER, S-9, AROCLOR 1254 (30%), Method: PREINCUBATION
[19] = Test System: AMES SALMONELLA TYPHIMURIUM, Strain/Indicator: TA98, Metabolic Activation: HAMSTER, LIVER, S-9, AROCLOR 1254 (30%), Method: PREINCUBATION

Row | Structure (SMILES) | mutagenic call [1] | mutagenic call [2] | mutagenic call [3] | mutagenic call [4] | mutagenic call [5] | mutagenic call [6] | mutagenic call [7] | mutagenic call [8] | mutagenic call [9] | mutagenic call [10] | mutagenic call [11] | mutagenic call [12] | mutagenic call [13] | mutagenic call [14] | mutagenic call [15] | mutagenic call [16] | mutagenic call [17] | mutagenic call [18] | mutagenic call [19] | also measured
1 | O.O.O.O.O.O.O=[N+]([O-])[O-].O=[N+]([O-])[O-].O=[N+]([O-])[O-].[La+3] | inactive; negative | inactive; negative | inactive; negative | inactive; negative | inactive; negative | inactive; negative | inactive; negative | inactive; negative | inactive; negative | inactive; negative | inactive; negative | inactive; negative | inactive; negative | inactive; negative | inactive; negative | inactive; negative | inactive; negative | inactive; negative |  | mutagenic call (Test System: UDS HUMAN LYMPHOCYTES, Strain/Indicator: THYMIDINE INCORPORATION, Metabolic Activation: NONE, Method: LIQUID SCINTILLATION COUNTING): active; positive
2 | CC(=O)Nc1snc2c(Cl)cc(Cl)cc12 |  |  |  |  |  |  |  |  |  |  |  |  |  |  |  |  |  |  |  | mutagenic call (Test System: AMES SALMONELLA TYPHIMURIUM, Strain/Indicator: TA98, Metabolic Activation: NONE, Method: STANDARD PLATE): inactive; negative; mutagenic call (Test System: AMES SALMONELLA TYPHIMURIUM, Strain/Indicator: TA98, Metabolic Activation: S-9, Method: STANDARD PLATE): inactive; negative; mutagenic call (Test System: AMES SALMONELLA TYPHIMURIUM, Strain/Indicator: TA100, Metabolic Activation: NONE, Method: STANDARD PLATE): inactive; negative; mutagenic call (Test System: AMES SALMONELLA TYPHIMURIUM, Strain/Indicator: TA100, Metabolic Activation: S-9, Method: STANDARD PLATE): inactive; negative; mutagenic call (Test System: AMES SALMONELLA TYPHIMURIUM, Strain/Indicator: TA1535, Metabolic Activation: NONE, Method: STANDARD PLATE): inactive; negative; mutagenic call (Test System: AMES SALMONELLA TYPHIMURIUM, Strain/Indicator: TA1535, Metabolic Activation: S-9, Method: STANDARD PLATE): inactive; negative; mutagenic call (Test System: AMES SALMONELLA TYPHIMURIUM, Strain/Indicator: TA1537, Metabolic Activation: NONE, Method: STANDARD PLATE): inactive; negative; mutagenic call (Test System: AMES SALMONELLA TYPHIMURIUM, Strain/Indicator: TA1537, Metabolic Activation: S-9, Method: STANDARD PLATE): inactive; negative
3 | Oc1ccc(Cl)cc1Cc1cc(Cl)ccc1O |  |  |  |  |  | inactive; negative |  | inactive; negative |  |  | inactive; negative |  |  |  | inactive; negative |  |  |  | inactive; negative | 
4 | C[C@@H]1[C@H](O)[C@@H](C)/C=C/C=C/C=C/C=C/C=C/C=C/C=C/[C@H](O[C@@H]2O[C@H](C)[C@@H](O)[C@H](N)[C@@H]2O)C[C@@H]2O[C@](O)(C[C@@H](O)C[C@@H](O)[C@H](O)CC[C@@H](O)C[C@@H](O)CC(=O)O[C@H]1C)C[C@H](O)[C@H]2C(=O)O | inactive; negative | inactive; negative |  |  | inactive; negative | inactive; negative |  |  |  |  | inactive; negative |  |  |  |  | inactive; negative |  |  |  | mutagenic call (End Point: IN VITRO CHROMOSOMAL ABERRATIONS, Test System: CHO-LB CELLS, Metabolic Activation: NONE): inactive; negative; mutagenic call (End Point: IN VITRO CHROMOSOMAL ABERRATIONS, Test System: CHO-LB CELLS, Metabolic Activation: RAT, LIVER, S-9, AROCLOR 1254): inactive; negative; mutagenic call (Test System: AMES SALMONELLA TYPHIMURIUM, Strain/Indicator: TA97, Metabolic Activation: RAT, LIVER, S-9, AROCLOR 1254 (10 OR 30%), Method: PREINCUBATION): inactive; negative; mutagenic call (Test System: AMES SALMONELLA TYPHIMURIUM, Strain/Indicator: TA98, Metabolic Activation: RAT, LIVER, S-9, AROCLOR 1254 (10 OR 30%), Method: PREINCUBATION): inactive; negative; mutagenic call (Test System: AMES SALMONELLA TYPHIMURIUM, Strain/Indicator: TA100, Metabolic Activation: HAMSTER, LIVER, S-9, AROCLOR 1254 (10 OR 30%), Method: PREINCUBATION): inactive; negative; mutagenic call (Test System: AMES SALMONELLA TYPHIMURIUM, Strain/Indicator: TA100, Metabolic Activation: RAT, LIVER, S-9, AROCLOR 1254 (10 OR 30%), Method: PREINCUBATION): inactive; negative; mutagenic call (Test System: AMES SALMONELLA TYPHIMURIUM, Strain/Indicator: TA1535, Metabolic Activation: HAMSTER, LIVER, S-9, AROCLOR 1254 (10 OR 30%), Method: PREINCUBATION): inactive; negative; mutagenic call (Test System: AMES SALMONELLA TYPHIMURIUM, Strain/Indicator: TA1535, Metabolic Activation: RAT, LIVER, S-9, AROCLOR 1254 (10 OR 30%), Method: PREINCUBATION): inactive; negative; mutagenic call (Test System: AMES SALMONELLA TYPHIMURIUM, Strain/Indicator: TA1537, Metabolic Activation: HAMSTER, LIVER, S-9, AROCLOR 1254 (30%), Method: PREINCUBATION): inactive; negative; mutagenic call (Test System: AMES SALMONELLA TYPHIMURIUM, Strain/Indicator: TA1537, Metabolic Activation: NONE, Method: PREINCUBATION): inactive; negative; mutagenic call (Test System: AMES SALMONELLA TYPHIMURIUM, Strain/Indicator: TA1537, Metabolic Activation: RAT, LIVER, S-9, AROCLOR 1254 (30%), Method: PREINCUBATION): inactive; negative
5 | CCCCOCCCC |  | inactive; negative | inactive; negative | inactive; negative |  | inactive; negative | inactive; negative | inactive; negative | inactive; negative | inactive; negative | inactive; negative | inactive; negative | inactive; negative | inactive; negative | inactive; negative | inactive; negative | inactive; negative | inactive; negative | inactive; negative | mutagenic call (Test System: AMES SALMONELLA TYPHIMURIUM, Strain/Indicator: TA97, Metabolic Activation: HAMSTER, LIVER, S-9, AROCLOR 1254 (10%), Method: PREINCUBATION): inactive; negative; mutagenic call (Test System: AMES SALMONELLA TYPHIMURIUM, Strain/Indicator: TA97, Metabolic Activation: HAMSTER, LIVER, S-9, AROCLOR 1254 (30%), Method: PREINCUBATION): inactive; negative; mutagenic call (Test System: AMES SALMONELLA TYPHIMURIUM, Strain/Indicator: TA98, Metabolic Activation: HAMSTER, LIVER, S-9, AROCLOR 1254 (10%), Method: PREINCUBATION): inactive; negative
